The nature of this data set: Concentration of saturated solution of racemic HCl salt in EtOH, determined by HPLC. The data set is classed as physicochemical. The procedure: A saturated solution of racemic HCl salt is prepared by heating 50 g of salt in EtOH (350 ml) to reflux. A clear solution is formed. This is allowed to cool to 40° C. The mixture is seeded with a slurry of racemic HCl salt.
Crystallization is observed. This is allowed to equilibrate overnight. The mixture is filtered into the reaction vessel (preheated to 40° C.). This is heated to 60° C. to ensure complete dissolution, cooled to 40° C. and sampled to determine the concentration by HPLC. This is then cooled to 13° C. in increments of 1° C./5 min. At 13° C. a small amount of crystallisation is observed. A seed sample is also added and this is allowed to equilibrate overnight. A sample is removed for concentration determination at 13° C.

In the case of `CC1N=C(N)NC(N(C)C)=N1` (racemic) [A1, 2-amino-3,6-dihydro-4-dimethylamino-6-methyl-1,3,5-triazine], the “Concentration of sat. solution at 40° C.” value (equilibrated at 40° C.) is 92200 µg/mL. Further, the “Concentration at 13° C.” value (equilibrated overnight at 13° C.) came to 69740 µg/mL.
